Reference: patent publication US12172990B2 (Constellation Pharmaceuticals, Inc., priority 2018, dated 2024)

What was measured:
full length human TREX1 = full length human TREX1 (Homo sapiens (Human), UniProt Q9NSU2); assay: TREX1 Biochemical Assay (fluorescence assay measuring degradation of dsDNA substrate); details: 150 pM TREX1, 60 nM dsDNA substrate, 25 minutes at room temperature
Procedure, shortened: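 His-Tev-tagged full-length human TREX1 expressed in E. coli, 150 pM final, with 60 nM TEX615/quencher-labelled 9-mer dsDNA in Tris pH 7.4, NaCl, DTT, BSA, Tween-20, MgCl2 and 1.0% DMSO; 25 min at room temperature, EDTA-quenched. Fluorescence 615 nm (excitation 570 nm); 10-point IC50 by four-parameter fit against pre-quenched and no-inhibitor controls.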

[1] = target: human TREX2 (residues M44-A279) (Homo sapiens (Human), UniProt Q9BQ50); assay: TREX2 Biochemical Assay (fluorescence assay measuring degradation of dsDNA substrate); details: 2.5 nM TREX2, 60 nM dsDNA substrate, 25 minutes at room temperature
Chain of human TREX2 (residues M44-A279) (Q9BQ50 whole entry, the tested form may be a part): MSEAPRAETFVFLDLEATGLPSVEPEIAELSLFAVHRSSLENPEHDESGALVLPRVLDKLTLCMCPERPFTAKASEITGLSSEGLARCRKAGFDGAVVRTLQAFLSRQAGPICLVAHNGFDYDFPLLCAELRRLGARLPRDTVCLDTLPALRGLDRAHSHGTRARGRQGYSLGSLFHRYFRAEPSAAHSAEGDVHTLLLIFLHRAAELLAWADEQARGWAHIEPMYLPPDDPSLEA
Procedure, shortened: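 Final conditions: 2.5 nM His-Tev-tagged TREX2 (E. coli-expressed), 60 nM fluorophore/quencher-labelled dsDNA, 50 mM Tris pH 7.4, 150 mM NaCl, 100 mM MgCl2, 1% DMSO; 10-point compound dose-response. Incubated 25 min at room temperature, then EDTA-quenched; fluorescence read at ex 570/em 615 nm. IC50 from four-parameter fit against pre-quenched and no-inhibitor controls.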

Chain of full length human TREX1 (Q9NSU2 whole entry): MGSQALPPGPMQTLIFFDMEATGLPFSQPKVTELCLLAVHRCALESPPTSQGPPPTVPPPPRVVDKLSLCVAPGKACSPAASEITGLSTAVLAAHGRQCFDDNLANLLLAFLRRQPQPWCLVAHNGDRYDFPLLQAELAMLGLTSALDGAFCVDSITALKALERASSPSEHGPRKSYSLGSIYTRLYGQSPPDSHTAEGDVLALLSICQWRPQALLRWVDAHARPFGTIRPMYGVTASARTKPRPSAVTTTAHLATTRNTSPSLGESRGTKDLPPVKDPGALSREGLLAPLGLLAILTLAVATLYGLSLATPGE

IC50 (full length human TREX1) [nM]	IC50 [1] [nM]	SMILES
100 to 1000	10000 to 100000	Cn1c([C@H]2CCCN(C(=O)Cc3ccc(F)c(F)c3)C2)nc(C(=O)Nc2cnoc2)c(O)c1=O [Example 91, (S)-2-(1-(2-(3,4-difluorophenyl)acetyl)piperidin-3-yl)-5-hydroxy-N-(isoxazol-4-yl)-1-methyl-6-oxo-1,6-dihydropyrimidine-4-carboxamide]
100 to 1000	10000 to 100000	Cn1c(C2(c3ccccc3)CC2)nc(C(=O)Nc2cnoc2)c(O)c1=O [Example 20, 5-hydroxy-N-(isoxazol-4-yl)-1-methyl-6-oxo-2-(1-phenylcyclopropyl)-1,6-dihydropyrimidine-4-carboxamide]
100 to 1000	10000 to 100000	CN1CCN(c2nc(C(=O)Nc3cnoc3)c(O)c(=O)n2C)CC1 [Example 49, 5-hydroxy-N-(isoxazol-4-yl)-1-methyl-2-(4-methylpiperazin-1-yl)-6-oxo-1,6-dihydropyrimidine-4-carboxamide]
100 to 1000	10000 to 100000	CC(=O)N1CCCC(c2nc(C(=O)Nc3cnoc3)c(O)c(=O)n2C)C1 (centres unmarked) [Example 64, 2-(1-acetylpiperidin-3-yl)-5-hydroxy-N-(isoxazol-4-yl)-1-methyl-6-oxo-1,6-dihydropyrimidine-4-carboxamide]
100 to 1000	1000 to 10000	Cn1c(C2CCCN(C(=O)c3cncnc3)C2)nc(C(=O)Nc2cnoc2)c(O)c1=O (centres unmarked) [Example 58, 5-hydroxy-N-(isoxazol-4-yl)-1-methyl-6-oxo-2-(1-(pyrimidine-5-carbonyl)piperidin-3-yl)-1,6-dihydropyrimidine-4-carboxamide]
100 to 1000	10000 to 100000	CC(=O)N1CCCN(c2nc(C(=O)Nc3cnoc3)c(O)c(=O)n2C)CC1 [Example 111, 2-(4-acetyl-1,4-diazepan-1-yl)-5-hydroxy-N-(isoxazol-4-yl)-1-methyl-6-oxo-1,6-dihydropyrimidine-4-carboxamide]
1000 to 10000	> 100000	Cn1c(C2CN(C(=O)OC(C)(C)C)C2)nc(C(=O)Nc2cnoc2)c(O)c1=O [Example 19, tert-butyl 3-(5-hydroxy-4-(isoxazol-4-ylcarbamoyl)-1-methyl-6-oxo-1,6-dihydropyrimidin-2-yl)azetidine-1-carboxylate]
100 to 1000	10000 to 100000	Cn1c(N2CC(Oc3ccccc3)C2)nc(C(=O)Nc2cnoc2)c(O)c1=O [Example 122, 5-hydroxy-N-(isoxazol-4-yl)-1-methyl-6-oxo-2-(3-phenoxyazetidin-1-yl)-1,6-dihydropyrimidine-4-carboxamide]

Continued, compound first:

SMILES	IC50 (full length human TREX1) [nM]	IC50 [1] [nM]
Cn1c(C2CCCN(C(=O)C3CCC(=O)NC3)C2)nc(C(=O)Nc2cnoc2)c(O)c1=O (centres unmarked) [Example 56, 5-hydroxy-N-(isoxazol-4-yl)-1-methyl-6-oxo-2-(1-(6-oxopiperidine-3-carbonyl)piperidin-3-yl)-1,6-dihydropyrimidine-4-carboxamide]	100 to 1000	10000 to 100000
Cn1c(N2CC[C@@H](C(N)=O)C2)nc(C(=O)Nc2cnoc2)c(O)c1=O [Example 118, (R)-2-(3-carbamoylpyrrolidin-1-yl)-5-hydroxy-N-(isoxazol-4-yl)-1-methyl-6-oxo-1,6-dihydropyrimidine-4-carboxamide]	< 100	10000 to 100000
Cn1c(-c2cc(Cl)cc(Cl)c2)nc(C(=O)Nc2cnoc2)c(O)c1=O [Example 30, 2-(3,5-dichlorophenyl)-5-hydroxy-N-(isoxazol-4-yl)-1-methyl-6-oxo-1,6-dihydropyrimidine-4-carboxamide]	100 to 1000	1000 to 10000
Cn1c(C2CCCN(C(=O)Nc3ccccc3)C2)nc(C(=O)Nc2cnoc2)c(O)c1=O (centres unmarked) [Example 65, 5-hydroxy-N-(isoxazol-4-yl)-1-methyl-6-oxo-2-(1-(phenylcarbamoyl)piperidin-3-yl)-1,6-dihydropyrimidine-4-carboxamide]	100 to 1000	1000 to 10000
CC(=O)N1CCN(c2nc(C(=O)Nc3cnoc3)c(O)c(=O)n2C)[C@H](c2ccccc2Cl)C1 [Example 128, (R)-2-(4-acetyl-2-(2-chlorophenyl)piperazin-1-yl)-5-hydroxy-N-(isoxazol-4-yl)-1-methyl-6-oxo-1,6-dihydropyrimidine-4-carboxamide]	< 100	< 1000
Cn1c(N2CC[C@H](C(N)=O)C2)nc(C(=O)Nc2cnoc2)c(O)c1=O [Example 117, (S)-2-(3-carbamoylpyrrolidin-1-yl)-5-hydroxy-N-(isoxazol-4-yl)-1-methyl-6-oxo-1,6-dihydropyrimidine-4-carboxamide]	100 to 1000	10000 to 100000
Cn1c(N2CCC[C@H]2c2ccncc2)nc(C(=O)Nc2cnoc2)c(O)c1=O [Example 103, (S)-5-hydroxy-N-(isoxazol-4-yl)-1-methyl-6-oxo-2-(2-(pyridin-4-yl)pyrrolidin-1-yl)-1,6-dihydropyrimidine-4-carboxamide]	100 to 1000	10000 to 100000
Cn1c([C@H]2CCCN(C(=O)c3ccc(Cl)c(Cl)c3)C2)nc(C(=O)Nc2cnoc2)c(O)c1=O [Example 97, (S)-2-(1-(3,4-dichlorobenzoyl)piperidin-3-yl)-5-hydroxy-N-(isoxazol-4-yl)-1-methyl-6-oxo-1,6-dihydropyrimidine-4-carboxamide]	< 100	< 1000
Cc1cc(C(=O)O)cc(-c2nc(C(=O)Nc3cnoc3)c(O)c(=O)n2C)c1 [Example 51, 3-(5-hydroxy-4-(isoxazol-4-ylcarbamoyl)-1-methyl-6-oxo-1,6-dihydropyrimidin-2-yl)-5-methylbenzoic acid]	100 to 1000	1000 to 10000
Cn1c(C2CCCN(S(=O)(=O)c3ccccc3)C2)nc(C(=O)Nc2cnoc2)c(O)c1=O (centres unmarked) [Example 57, 5-hydroxy-N-(isoxazol-4-yl)-1-methyl-6-oxo-2-(1-(phenylsulfonyl)piperidin-3-yl)-1,6-dihydropyrimidine-4-carboxamide]	100 to 1000	10000 to 100000
Cn1c(C2CCCCN2C(=O)OC(C)(C)C)nc(C(=O)Nc2cnoc2)c(O)c1=O (centres unmarked) [Example 14, tert-butyl 2-(5-hydroxy-4-(isoxazol-4-ylcarbamoyl)-1-methyl-6-oxo-1,6-dihydropyrimidin-2-yl)piperidine-1-carboxylate]	100 to 1000	1000 to 10000
Cn1c(C2CCCN(C(=O)CCc3ccccc3)C2)nc(C(=O)Nc2cnoc2)c(O)c1=O (centres unmarked) [Example 43, 5-hydroxy-N-(isoxazol-4-yl)-1-methyl-6-oxo-2-(1-(3-phenylpropanoyl)piperidin-3-yl)-1,6-dihydropyrimidine-4-carboxamide]	< 100	1000 to 10000
Cn1c(-c2cccc(Br)c2CCO)nc(C(=O)Nc2cnoc2)c(O)c1=O [Example 78, 2-(3-bromo-2-(2-hydroxyethyl)phenyl)-5-hydroxy-N-(isoxazol-4-yl)-1-methyl-6-oxo-1,6-dihydropyrimidine-4-carboxamide]	< 100	1000 to 10000
Cn1c(-c2cccnc2)nc(C(=O)Nc2cnoc2)c(O)c1=O [Example 29, 5-hydroxy-N-(isoxazol-4-yl)-1-methyl-6-oxo-2-(pyridin-3-yl)-1,6-dihydropyrimidine-4-carboxamide]	1000 to 10000	10000 to 100000
Cn1c(C(NC(=O)OCc2ccccc2)c2ccc(Br)cc2)nc(C(=O)Nc2cnoc2)c(O)c1=O (centres unmarked) [Example 24, benzyl ((4-bromophenyl)(5-hydroxy-4-(isoxazol-4-ylcarbamoyl)-1-methyl-6-oxo-1,6-dihydropyrimidin-2-yl)methyl)carbamate]	100 to 1000	> 100000
Cn1c(-c2ccccc2NCCCO)nc(C(=O)Nc2cnoc2)c(O)c1=O [Example 75, 5-hydroxy-2-(2-((3-hydroxypropyl)amino)phenyl)-N-(isoxazol-4-yl)-1-methyl-6-oxo-1,6-dihydropyrimidine-4-carboxamide]	> 10000	> 100000
Cn1c([C@@H]2CCCN(C(=O)c3ccc(Cl)c(Cl)c3)C2)nc(C(=O)Nc2cnoc2)c(O)c1=O [Example 131, (R)-2-(1-(3,4-dichlorobenzoyl)piperidin-3-yl)-5-hydroxy-N-(isoxazol-4-yl)-1-methyl-6-oxo-1,6-dihydropyrimidine-4-carboxamide]	< 100	< 1000
Cc1cc(C(=O)NC2CCN(C)CC2)cc(-c2nc(C(=O)Nc3cnoc3)c(O)c(=O)n2C)c1 [Example 54, 5-hydroxy-N-(isoxazol-4-yl)-1-methyl-2-(3-methyl-5-((1-methylpiperidin-4-yl)carbamoyl)phenyl)-6-oxo-1,6-dihydropyrimidine-4-carboxamide]	100 to 1000	10000 to 100000
Cn1c([C@H]2CCCN(S(=O)(=O)c3ccc(Cl)c(Cl)c3)C2)nc(C(=O)Nc2cnoc2)c(O)c1=O [Example 92, (S)-2-(1-((3,4-dichlorophenyl)sulfonyl)piperidin-3-yl)-5-hydroxy-N-(isoxazol-4-yl)-1-methyl-6-oxo-1,6-dihydropyrimidine-4-carboxamide]	100 to 1000	10000 to 100000
Cc1cc(-c2ccn(C)n2)cc(-c2nc(C(=O)Nc3cnoc3)c(O)c(=O)n2C)c1 [Example 35, 5-hydroxy-N-(isoxazol-4-yl)-1-methyl-2-(3-methyl-5-(1-methyl-1H-pyrazol-3-yl)phenyl)-6-oxo-1,6-dihydropyrimidine-4-carboxamide]	100 to 1000	1000 to 10000
